Source: PMC7316778 (Nature Communications, 2020)
“And” between values parts separate entries of the source, which are not always exact repeats. Equal entries are not always repeated. Where two headings read alike, the source gives them in different places.

Experiments:
[1] = target: MAP3K11 (MLK3) (Homo sapiens, UniProt Q16584); assay: SelectScreen kinase assay
Description: (§1) Selectivity profiling assays were performed by the Invitrogen SelectScreen™ Services. […] The concentration of ATP was selected to be equal to the KM, unless indicated otherwise.

[2] = target: CLK2 (Homo sapiens, UniProt P49760); assay: SelectScreen kinase assay; details: 1 h, 1 μM WEL028, 1 h preincubation
Description: as §1

[3] = target: FES^S700C (Homo sapiens, UniProt P07332, S700C); assay: FES Y713 autophosphorylation immunoblot, transfected HEK293T cells; assay type: cell-based; parameters: expressed in transfected cells; host or cells: HEK293T (transient, PEI); details: WEL028 100 nM
Description: Samples were resolved by SDS-PAGE as described above, but transferred to 0.2 μm polyvinylidene difluoride membranes by Trans-Blot Turbo™ Transfer system (Bio-Rad) directly after fluorescence scanning. Membranes were washed with TBS (50 mM Tris pH 7.5, 150 mM NaCl) and blocked with 5% milk in TBS-T (50 mM Tris pH 7.5, 150 mM NaCl, 0.05% Tween-20) for 1 h at rt.
Membranes were then incubated with primary antibody in 5% milk in TBS-T (FLAG, V5, β-actin; o/n at 4 °C) or washed three times with TBS-T, followed by incubation with primary antibody in 5% BSA in TBS-T (other antibodies, o/n at 4 °C). Membranes were washed three times with TBS-T, incubated with matching secondary antibody in 5% milk in TBS-T (1:5000, 1 h at rt) and then washed three times with TBS-T and once with TBS. Luminol development solution (10 mL of 1.4 mM luminol in 100 mM Tris pH 8.8 + 100 µL of 6.7 mM p-coumaric acid in DMSO + 3 µL of 30% (v/v) H2O2) or Clarity Max™ ECL Substrate (Bio-Rad) was added and chemiluminescence was detected on ChemiDoc™ MP System.

[4] = target: EPHA2 (Homo sapiens, UniProt P29317); assay: SelectScreen kinase assay
Description: as §1

[5] = target: T1, MAP2K5 (MEK5) (Homo sapiens, UniProt Q13163); assay: SelectScreen kinase assay
T1 sequence (Q13163 1-448): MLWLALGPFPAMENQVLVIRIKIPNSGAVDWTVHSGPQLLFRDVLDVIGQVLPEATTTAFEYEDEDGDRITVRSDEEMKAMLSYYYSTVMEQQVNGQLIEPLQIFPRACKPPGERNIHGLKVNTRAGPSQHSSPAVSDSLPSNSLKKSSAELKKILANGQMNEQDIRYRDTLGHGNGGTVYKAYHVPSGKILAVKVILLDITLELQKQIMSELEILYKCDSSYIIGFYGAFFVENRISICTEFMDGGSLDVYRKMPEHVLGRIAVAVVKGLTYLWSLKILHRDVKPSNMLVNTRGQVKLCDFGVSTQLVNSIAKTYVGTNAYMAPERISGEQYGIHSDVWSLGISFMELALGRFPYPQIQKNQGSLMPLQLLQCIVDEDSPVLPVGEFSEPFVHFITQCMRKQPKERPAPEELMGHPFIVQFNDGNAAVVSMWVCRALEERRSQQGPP
Description: as §1

[6] = target: RPS6KA2 (RSK3) (Homo sapiens, UniProt Q15349); assay: SelectScreen kinase assay; details: 1 h, 1 μM WEL028, 1 h preincubation
Description: as §1

[7] = target: EPHB1 (Homo sapiens, UniProt P54762); assay: SelectScreen kinase assay
Description: as §1

[8] = target: TEK (Tie2) (Homo sapiens, UniProt Q02763); assay: SelectScreen kinase assay
Description: as §1

[9] = target: PI4KA (PI4K alpha) (Homo sapiens, UniProt P42356); assay: SelectScreen kinase assay
Description: as §1

[10] = target: T2, CDKL5 (Homo sapiens, UniProt O76039); assay: SelectScreen kinase assay
T2 sequence (O76039 1-960): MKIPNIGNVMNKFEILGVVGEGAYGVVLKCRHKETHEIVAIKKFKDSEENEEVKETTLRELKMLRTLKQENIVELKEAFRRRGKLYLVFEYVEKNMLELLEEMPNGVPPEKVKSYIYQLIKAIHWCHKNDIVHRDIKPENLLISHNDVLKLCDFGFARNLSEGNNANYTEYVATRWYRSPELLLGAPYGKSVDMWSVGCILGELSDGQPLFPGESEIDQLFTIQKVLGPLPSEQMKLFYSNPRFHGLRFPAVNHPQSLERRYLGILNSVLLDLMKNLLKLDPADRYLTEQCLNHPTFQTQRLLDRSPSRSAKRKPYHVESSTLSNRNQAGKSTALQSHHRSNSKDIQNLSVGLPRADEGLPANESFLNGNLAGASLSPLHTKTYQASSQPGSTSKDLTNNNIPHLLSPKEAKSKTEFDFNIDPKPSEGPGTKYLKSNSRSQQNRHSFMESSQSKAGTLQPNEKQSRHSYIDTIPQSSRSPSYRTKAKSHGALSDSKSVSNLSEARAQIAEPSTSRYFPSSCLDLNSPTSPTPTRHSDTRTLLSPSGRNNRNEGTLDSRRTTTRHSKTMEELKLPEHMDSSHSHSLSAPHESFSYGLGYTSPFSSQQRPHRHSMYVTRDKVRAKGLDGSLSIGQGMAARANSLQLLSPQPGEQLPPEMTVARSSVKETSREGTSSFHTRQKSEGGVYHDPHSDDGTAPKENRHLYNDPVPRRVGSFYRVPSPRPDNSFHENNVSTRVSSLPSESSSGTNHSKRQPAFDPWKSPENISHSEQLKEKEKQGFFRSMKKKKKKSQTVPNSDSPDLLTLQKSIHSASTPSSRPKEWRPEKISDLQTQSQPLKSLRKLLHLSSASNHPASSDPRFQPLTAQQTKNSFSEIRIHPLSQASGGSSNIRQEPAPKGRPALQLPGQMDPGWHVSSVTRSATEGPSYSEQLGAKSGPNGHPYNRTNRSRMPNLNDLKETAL
Description: as §1

[11] = 1 h, 1 μM WEL028, 1 h preincubation

Sequence of PI4KA (PI4K alpha) (P42356 whole entry): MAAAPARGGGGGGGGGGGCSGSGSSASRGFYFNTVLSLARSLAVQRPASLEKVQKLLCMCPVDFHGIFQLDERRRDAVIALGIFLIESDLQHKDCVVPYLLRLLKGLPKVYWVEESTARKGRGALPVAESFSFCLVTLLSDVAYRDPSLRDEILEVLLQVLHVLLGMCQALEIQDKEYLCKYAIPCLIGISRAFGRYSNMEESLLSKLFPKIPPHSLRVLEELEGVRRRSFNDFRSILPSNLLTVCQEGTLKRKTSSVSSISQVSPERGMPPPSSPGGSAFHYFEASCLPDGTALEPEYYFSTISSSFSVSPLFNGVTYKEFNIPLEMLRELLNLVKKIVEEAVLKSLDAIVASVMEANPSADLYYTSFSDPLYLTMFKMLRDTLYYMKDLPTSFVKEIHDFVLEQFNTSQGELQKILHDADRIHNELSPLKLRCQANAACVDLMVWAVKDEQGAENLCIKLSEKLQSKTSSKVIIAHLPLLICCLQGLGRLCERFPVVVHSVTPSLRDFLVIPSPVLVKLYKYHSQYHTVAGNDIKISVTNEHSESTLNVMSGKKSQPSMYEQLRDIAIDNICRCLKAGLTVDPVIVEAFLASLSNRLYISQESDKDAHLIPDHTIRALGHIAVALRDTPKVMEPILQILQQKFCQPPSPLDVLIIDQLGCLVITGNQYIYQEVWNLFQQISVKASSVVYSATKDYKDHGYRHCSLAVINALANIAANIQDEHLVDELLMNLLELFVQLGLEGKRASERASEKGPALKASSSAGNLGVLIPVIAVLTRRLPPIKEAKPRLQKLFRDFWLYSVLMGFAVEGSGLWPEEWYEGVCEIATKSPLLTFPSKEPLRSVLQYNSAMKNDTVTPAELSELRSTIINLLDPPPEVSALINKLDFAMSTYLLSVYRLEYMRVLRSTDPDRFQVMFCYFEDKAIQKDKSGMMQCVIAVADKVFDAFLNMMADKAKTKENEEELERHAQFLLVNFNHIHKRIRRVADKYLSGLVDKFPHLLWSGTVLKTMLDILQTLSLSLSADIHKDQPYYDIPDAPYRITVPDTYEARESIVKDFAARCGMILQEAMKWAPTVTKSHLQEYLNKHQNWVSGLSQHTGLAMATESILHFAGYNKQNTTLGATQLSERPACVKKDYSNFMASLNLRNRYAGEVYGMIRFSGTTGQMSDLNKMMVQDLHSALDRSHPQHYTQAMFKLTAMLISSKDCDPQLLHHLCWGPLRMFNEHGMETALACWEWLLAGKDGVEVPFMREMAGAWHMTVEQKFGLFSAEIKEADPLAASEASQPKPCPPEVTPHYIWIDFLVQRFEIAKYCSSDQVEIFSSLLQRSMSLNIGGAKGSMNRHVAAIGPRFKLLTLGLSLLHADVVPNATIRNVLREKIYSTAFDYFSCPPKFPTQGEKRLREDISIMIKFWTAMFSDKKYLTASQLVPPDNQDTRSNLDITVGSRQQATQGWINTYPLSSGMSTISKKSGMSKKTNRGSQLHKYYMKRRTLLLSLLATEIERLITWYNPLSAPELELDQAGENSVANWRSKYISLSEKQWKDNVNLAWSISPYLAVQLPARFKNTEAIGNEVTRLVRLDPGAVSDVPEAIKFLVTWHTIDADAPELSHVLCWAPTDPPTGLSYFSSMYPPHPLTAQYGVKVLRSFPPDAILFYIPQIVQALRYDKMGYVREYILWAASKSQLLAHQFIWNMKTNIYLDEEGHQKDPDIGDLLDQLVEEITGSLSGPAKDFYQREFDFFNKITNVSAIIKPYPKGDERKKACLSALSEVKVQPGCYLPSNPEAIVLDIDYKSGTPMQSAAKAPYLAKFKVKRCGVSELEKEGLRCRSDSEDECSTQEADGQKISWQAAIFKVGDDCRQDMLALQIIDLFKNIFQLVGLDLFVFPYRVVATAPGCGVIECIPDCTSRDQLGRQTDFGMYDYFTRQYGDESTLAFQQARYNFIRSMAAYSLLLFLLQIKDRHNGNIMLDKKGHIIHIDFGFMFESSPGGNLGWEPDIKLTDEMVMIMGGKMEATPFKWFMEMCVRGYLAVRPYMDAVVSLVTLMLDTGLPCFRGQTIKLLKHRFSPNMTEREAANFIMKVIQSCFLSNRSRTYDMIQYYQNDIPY
Sequence of EPHB1 (P54762 18-984): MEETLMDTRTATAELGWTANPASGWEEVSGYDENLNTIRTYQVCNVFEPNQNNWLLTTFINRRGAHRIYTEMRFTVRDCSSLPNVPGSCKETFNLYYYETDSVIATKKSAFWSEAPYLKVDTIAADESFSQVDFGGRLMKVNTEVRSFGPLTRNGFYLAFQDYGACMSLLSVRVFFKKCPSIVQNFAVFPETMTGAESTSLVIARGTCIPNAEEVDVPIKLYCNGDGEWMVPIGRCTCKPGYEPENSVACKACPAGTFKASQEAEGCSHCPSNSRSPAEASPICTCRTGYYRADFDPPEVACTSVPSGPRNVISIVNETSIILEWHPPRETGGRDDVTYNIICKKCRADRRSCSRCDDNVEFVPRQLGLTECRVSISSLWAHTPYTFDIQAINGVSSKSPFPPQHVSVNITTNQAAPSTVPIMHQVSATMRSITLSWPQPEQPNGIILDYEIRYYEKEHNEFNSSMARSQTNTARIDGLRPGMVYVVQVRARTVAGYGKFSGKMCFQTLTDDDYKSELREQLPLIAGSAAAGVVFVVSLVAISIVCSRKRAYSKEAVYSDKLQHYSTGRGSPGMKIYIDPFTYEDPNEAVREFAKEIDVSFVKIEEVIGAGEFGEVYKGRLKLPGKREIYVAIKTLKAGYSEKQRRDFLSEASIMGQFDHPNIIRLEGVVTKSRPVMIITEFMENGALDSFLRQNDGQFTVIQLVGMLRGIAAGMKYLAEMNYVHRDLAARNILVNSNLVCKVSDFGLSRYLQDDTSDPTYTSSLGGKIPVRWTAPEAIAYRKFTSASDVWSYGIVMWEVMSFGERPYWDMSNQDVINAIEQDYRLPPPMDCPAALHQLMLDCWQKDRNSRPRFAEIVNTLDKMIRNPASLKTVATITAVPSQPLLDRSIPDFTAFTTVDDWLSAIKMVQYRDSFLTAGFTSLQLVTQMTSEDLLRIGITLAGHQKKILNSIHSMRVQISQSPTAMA
Sequence of FES^S700C (P07332 whole entry S700C): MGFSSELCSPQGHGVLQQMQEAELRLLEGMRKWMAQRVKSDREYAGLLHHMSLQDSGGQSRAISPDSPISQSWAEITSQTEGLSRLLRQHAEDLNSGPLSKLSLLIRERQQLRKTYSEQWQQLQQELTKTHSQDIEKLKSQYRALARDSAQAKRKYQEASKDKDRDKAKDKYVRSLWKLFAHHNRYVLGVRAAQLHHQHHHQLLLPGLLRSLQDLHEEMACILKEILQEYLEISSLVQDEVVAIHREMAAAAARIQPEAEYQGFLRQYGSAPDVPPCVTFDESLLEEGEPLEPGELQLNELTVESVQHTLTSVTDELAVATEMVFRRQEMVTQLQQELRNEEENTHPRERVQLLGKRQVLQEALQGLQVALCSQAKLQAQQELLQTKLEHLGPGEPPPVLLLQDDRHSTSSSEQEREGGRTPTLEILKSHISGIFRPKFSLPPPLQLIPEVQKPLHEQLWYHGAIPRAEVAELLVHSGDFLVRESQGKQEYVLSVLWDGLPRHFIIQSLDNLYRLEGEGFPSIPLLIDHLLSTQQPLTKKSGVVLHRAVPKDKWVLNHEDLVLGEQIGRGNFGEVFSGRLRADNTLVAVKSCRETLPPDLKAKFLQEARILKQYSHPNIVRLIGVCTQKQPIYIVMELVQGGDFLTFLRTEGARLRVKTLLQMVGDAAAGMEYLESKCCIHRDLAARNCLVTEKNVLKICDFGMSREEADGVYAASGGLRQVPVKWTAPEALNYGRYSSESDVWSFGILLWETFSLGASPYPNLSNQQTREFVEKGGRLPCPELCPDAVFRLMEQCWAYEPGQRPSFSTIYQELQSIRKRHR
Sequence of TEK (Tie2) (Q02763 23-1124): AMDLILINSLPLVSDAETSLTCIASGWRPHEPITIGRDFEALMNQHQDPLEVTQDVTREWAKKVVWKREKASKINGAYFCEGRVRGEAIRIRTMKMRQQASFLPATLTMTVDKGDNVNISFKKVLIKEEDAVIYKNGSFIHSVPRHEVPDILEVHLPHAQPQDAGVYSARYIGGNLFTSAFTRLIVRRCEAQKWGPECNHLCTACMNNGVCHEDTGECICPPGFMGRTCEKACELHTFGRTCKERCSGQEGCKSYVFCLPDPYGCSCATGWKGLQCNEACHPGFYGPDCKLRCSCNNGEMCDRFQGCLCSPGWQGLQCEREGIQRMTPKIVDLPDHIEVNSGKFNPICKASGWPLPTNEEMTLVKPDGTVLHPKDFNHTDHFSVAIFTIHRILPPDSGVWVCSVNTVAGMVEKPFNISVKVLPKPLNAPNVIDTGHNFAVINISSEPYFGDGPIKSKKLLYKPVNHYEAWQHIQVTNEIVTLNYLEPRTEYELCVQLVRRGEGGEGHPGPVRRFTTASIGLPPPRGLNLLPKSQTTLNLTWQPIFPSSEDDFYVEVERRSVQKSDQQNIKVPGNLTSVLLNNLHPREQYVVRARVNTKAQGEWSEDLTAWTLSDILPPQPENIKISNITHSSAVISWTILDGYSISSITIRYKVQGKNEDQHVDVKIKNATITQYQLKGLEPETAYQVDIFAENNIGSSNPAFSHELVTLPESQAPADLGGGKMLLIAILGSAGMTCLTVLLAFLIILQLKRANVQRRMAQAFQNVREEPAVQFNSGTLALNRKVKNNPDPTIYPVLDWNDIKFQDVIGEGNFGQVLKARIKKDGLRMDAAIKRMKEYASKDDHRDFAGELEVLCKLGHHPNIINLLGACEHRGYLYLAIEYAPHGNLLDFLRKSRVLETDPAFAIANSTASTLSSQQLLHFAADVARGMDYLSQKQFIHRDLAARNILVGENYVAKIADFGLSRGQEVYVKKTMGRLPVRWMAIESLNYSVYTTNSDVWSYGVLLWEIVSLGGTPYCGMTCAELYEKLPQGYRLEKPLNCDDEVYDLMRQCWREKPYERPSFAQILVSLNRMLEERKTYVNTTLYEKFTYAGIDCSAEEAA

Q: How did the “Inhibition at 1 µM (%)” value ([1]; MAP3K11 (MLK3), LanthaScreen Binding, listed as WEL028, 1 µM) turn out when `C#CCOc1ccc(Nc2ncc(Cl)c(Nc3ccccc3NC(=O)C=C)n2)c(OC)c1` [Compound 6] was run?
A: 6%

Q: And the inhibition at 1 µM ([1]; read-out: Inhibition at 1 µM (%), MAP3K11 (MLK3), LanthaScreen Binding)?
A: 7%

Q: What about the inhibition at 1 µM [2] of the same molecule?
A: 1%

Q: And the “Relative FES labeling (%)” value ([3]; Fig. 4i, anti-phospho-FES Y713 band intensity, replicates, normalized to vehicle)?
A: 6.91% and 5.589% and 0.4481%

Q: And the “Autophosphorylation of Tyr713” value [3]?
A: fully abolished autophosphorylation

Q: What about the inhibition at 1 µM [4, 11] of the same molecule?
A: 7%

Q: And the “Inhibition at 1 µM (%)” value ([4]; EPHA2, 1 µM, ZLYTE, ATP Km app)?
A: 13%

Q: What about the inhibition at 1 µM [5, 11] of the same molecule?
A: 53%

Q: And the “Inhibition at 1 µM (%)” value ([5]; MAP2K5 (MEK5), 1 µM, LanthaScreen Binding, listed as WEL028, 1 µM)?
A: 52%

Q: What about the inhibition at 1 µM ([5]; read-out: Inhibition at 1 µM (%), MAP2K5 (MEK5), 1 µM, LanthaScreen Binding) of the same molecule?
A: 53%

Q: And the inhibition at 1 µM [6]?
A: 19%

Q: What about the inhibition at 1 µM [7, 11] of the same molecule?
A: 0%

Q: What about the “Inhibition at 1 µM (%)” value ([7]; EPHB1, 1 µM, ZLYTE, ATP Km app, listed as WEL028, 1 µM) of the same molecule?
A: -1% and 1%

Q: What about the “Inhibition at 1 µM (%)” value ([8]; 1 µM, ZLYTE, ATP Km app, listed as WEL028, 1 µM) of the same molecule?
A: 4% and 10%

Q: And the inhibition at 1 µM [8, 11]?
A: 7%

Q: What about the inhibition at 1 µM [9, 11] of the same molecule?
A: 7%

Q: What about the “Inhibition at 1 µM (%)” value ([9]; PI4KA (PI4K alpha), 1 µM, Adapta, ATP 10, listed as WEL028, 1 µM) of the same molecule?
A: 3% and 11%

Q: And the inhibition at 1 µM [10, 11]?
A: 8%

Q: And the “Inhibition at 1 µM (%)” value ([10]; CDKL5, 1 µM, ZLYTE, ATP Km app, listed as WEL028, 1 µM)?
A: 9%

Q: And the inhibition at 1 µM ([10]; read-out: Inhibition at 1 µM (%), CDKL5, 1 µM, ZLYTE, ATP Km app)?
A: 7%
